# Data reported in US8178658B2 (Dow AgroSciences, LLC, priority 2008, dated 2012).
# Tests used:
# [1] = system: beet armyworm (BAW; Spodoptera exigua: Lepidoptera); experiment: 128-well diet tray assay on beet armyworm (BAW 50); type: in vivo; conditions: 128-well diet tray assay, second instar BAW larvae, mortality class; for BAW 50 ug/cm2: 50 μg/cm^2 of test compound on diet; for pest or weed control at 50 µg/cm2, 50 µg/cm2: Spodoptera exigua, 144 h, 50 μg/cm2 of test compound on diet, read-out: BAW 50 ug/cm2
# Procedure, shortened: (§1)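 Two diet-incorporation-style surface tests were run. Eggs infested treated diet (12 μg/well) in plates incubated dark at 29° C, with mortality taken on day 6 from six replicates. Separately, second-instar larvae fed on treated diet (50 μg/cm^2) at 25° C, 14:10 L:D, with six-day mortality averaged over eight wells.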
# [2] = system: beet armyworm (BAW; Spodoptera exigua: Lepidoptera); experiment: 96-well microtiter plate-based high throughput (HTS) diet bioassay on beet armyworm (BAW HTS); type: in vivo; conditions: 12 μg test compound per well, BAW eggs, mortality at 6 d post-treatment, mortality class; for pest or weed control at 12 µg/well, 12 µg/well: Spodoptera exigua, 144 h, read-out: BAW HTS
# Procedure, shortened: as §1
# [3] = 96-well microtiter plate HTS diet assay
SMILES,BAW 50 ug/cm2 [1],"pest or weed control at 50 µg/cm2, 50 µg/cm2 [1] [%]","BAW HTS [2, 3]","pest or weed control at 12 µg/well, 12 µg/well ([2]; 96-well HTS diet bioassay) [%]",BAW HTS ([2]; 96-well HTS diet bioassay)
"CO[C@@H]1[C@@H](OC)[C@H](C)O[C@@H](O/N=C/c2ccc(-c3ncn(-c4ccc(OC(F)(F)C(F)C(F)(F)F)cn4)n3)cc2)[C@@H]1OC (stereo partly drawn) [Compound 94, 4-{1-[5-(1,1,2,3,3,3-hexafluoropropoxy)-pyridinyl]-1H-[1,2,4]triazol-3-yl}-benzaldehyde O-((2S,3R,4R,5S,6S)-3,4,5-trimethoxy-6-methyl-tetrahydropyran-2-yl)-oxime]",A (the compound was tested and at least 50 percent mortality was observed),> 50,B (either (1) the compound was tested and less than 50 percent mortality was observed or (2) the compound was not tested),< 50,
COC1C(C)OC(ON=Cc2ccc(-c3nc(-c4ccc(C(F)(F)F)cc4)n[nH]3)cc2)C(OC)C1OC (stereo not drawn) [Compound 95],A (the compound was tested and at least 50 percent mortality was observed),,B (either (1) the compound was tested and less than 50 percent mortality was observed or (2) the compound was not tested),,B (either (1) the compound was tested and less than 50 percent mortality was observed or (2) the compound was not tested)
COC1C(C)OC(ON=Cc2ccc(-c3nc(-c4ccc(Cl)cc4)n[nH]3)cc2)C(OC)C1OC (stereo not drawn) [Compound 96],A (the compound was tested and at least 50 percent mortality was observed),,B (either (1) the compound was tested and less than 50 percent mortality was observed or (2) the compound was not tested),,B (either (1) the compound was tested and less than 50 percent mortality was observed or (2) the compound was not tested)
COC1C(C)OC(ON=Cc2ccc(-c3nc(-c4ccc(C(C)(C)C)cc4)n[nH]3)cc2)C(OC)C1OC (stereo not drawn) [Compound 97],A (the compound was tested and at least 50 percent mortality was observed),,B (either (1) the compound was tested and less than 50 percent mortality was observed or (2) the compound was not tested),,B (either (1) the compound was tested and less than 50 percent mortality was observed or (2) the compound was not tested)
COC1C(C)OC(ON=Cc2ccc(-c3nn(-c4ccc(Cl)c(Cl)c4)c(=O)[nH]3)cc2)C(OC)C1OC (stereo not drawn) [Compound 98],A (the compound was tested and at least 50 percent mortality was observed),,B (either (1) the compound was tested and less than 50 percent mortality was observed or (2) the compound was not tested),,B (either (1) the compound was tested and less than 50 percent mortality was observed or (2) the compound was not tested)
COC1C(C)OC(ON=Cc2ccc(-c3nn(-c4c(F)c(F)c(C(F)(F)F)c(F)c4F)c(=O)[nH]3)cc2)C(OC)C1OC (stereo not drawn) [Compound 99],A (the compound was tested and at least 50 percent mortality was observed),,B (either (1) the compound was tested and less than 50 percent mortality was observed or (2) the compound was not tested),,B (either (1) the compound was tested and less than 50 percent mortality was observed or (2) the compound was not tested)
COC1C(C)OC(ON=Cc2ccc(-c3nn(-c4ccc(F)cc4F)c(=O)[nH]3)cc2)C(OC)C1OC (stereo not drawn) [Compound 100],A (the compound was tested and at least 50 percent mortality was observed),,B (either (1) the compound was tested and less than 50 percent mortality was observed or (2) the compound was not tested),,B (either (1) the compound was tested and less than 50 percent mortality was observed or (2) the compound was not tested)
COC1C(C)OC(ON=Cc2ccc(-c3nn(-c4ccc(OC(F)(F)F)cc4)c(=O)[nH]3)cc2)C(OC)C1OC (stereo not drawn) [Compound 101],A (the compound was tested and at least 50 percent mortality was observed),,B (either (1) the compound was tested and less than 50 percent mortality was observed or (2) the compound was not tested),,B (either (1) the compound was tested and less than 50 percent mortality was observed or (2) the compound was not tested)
COC1C(C)OC(ON=Cc2ccc(-c3ncn(-c4ccc(Br)cc4)n3)cc2)C(OC)C1OC (stereo not drawn) [Compound 102],B (either (1) the compound was tested and less than 50 percent mortality was observed or (2) the compound was not tested),,B (either (1) the compound was tested and less than 50 percent mortality was observed or (2) the compound was not tested),,B (either (1) the compound was tested and less than 50 percent mortality was observed or (2) the compound was not tested)
"CO[C@@H]1[C@@H](OC)[C@H](C)O[C@@H](ON=Cc2ccc(-c3ncn(-c4ccc([S+]([O-])C(F)(F)F)cc4)n3)cc2)[C@@H]1OC (stereo partly drawn) [Compound 103, 4-[1-(4-trifluoromethanesulfinylphenyl)-1H-[1,2,4]triazol-3-yl]-benzaldehyde O-((2S,3R,4R,5S,6S)-3,4,5-trimethoxy-6-methyl-tetrahydropyran-2-yl)-oxime]",A (the compound was tested and at least 50 percent mortality was observed),> 50,B (either (1) the compound was tested and less than 50 percent mortality was observed or (2) the compound was not tested),< 50,
"CO[C@@H]1[C@@H](OC)[C@H](C)O[C@@H](ON=Cc2ccc(-c3ncn(-c4ccc(S(=O)(=O)C(F)(F)F)cc4)n3)cc2)[C@@H]1OC [Compound 104, 4-[1-(4-trifluoromethanesulfonylphenyl)-1H-[1,2,4]triazol-3-yl]-benzaldehyde O-((2S,3R,4R,5S,6S)-3,4,5-trimethoxy-6-methyl-tetrahydropyran-2-yl)-oxime]",A (the compound was tested and at least 50 percent mortality was observed),> 50,B (either (1) the compound was tested and less than 50 percent mortality was observed or (2) the compound was not tested),< 50,
COC1C(C)OC(ON=Cc2ccc(-c3ncn(-c4ccc(SC(F)(F)C(F)(F)F)cc4)n3)cc2)C(OC)C1OC (stereo not drawn) [Compound 105],A (the compound was tested and at least 50 percent mortality was observed),,B (either (1) the compound was tested and less than 50 percent mortality was observed or (2) the compound was not tested),,B (either (1) the compound was tested and less than 50 percent mortality was observed or (2) the compound was not tested)
CCCOC1C(OC)C(C)OC(ON=Cc2ccc(-c3ncn(-c4ccc(OC(F)(F)C(F)(F)F)cc4)n3)cc2)C1OC (stereo not drawn) [Compound 106],A (the compound was tested and at least 50 percent mortality was observed),,B (either (1) the compound was tested and less than 50 percent mortality was observed or (2) the compound was not tested),,B (either (1) the compound was tested and less than 50 percent mortality was observed or (2) the compound was not tested)
CCCOC1C(OC)C(C)OC(ON=Cc2ccc(-c3ncn(-c4ccc(C(F)(F)F)cc4)n3)cc2)C1OC (stereo not drawn) [Compound 107],A (the compound was tested and at least 50 percent mortality was observed),,A (the compound was tested and at least 50 percent mortality was observed),,A (the compound was tested and at least 50 percent mortality was observed)
CCCOC1C(OC)C(C)OC(ON=Cc2ccc(-c3ncn(-c4ccc(C(F)(F)C(F)(F)F)cc4)n3)cc2)C1OC (stereo not drawn) [Compound 108],A (the compound was tested and at least 50 percent mortality was observed),,B (either (1) the compound was tested and less than 50 percent mortality was observed or (2) the compound was not tested),,B (either (1) the compound was tested and less than 50 percent mortality was observed or (2) the compound was not tested)
CCCCOC1C(OC)C(C)OC(ON=Cc2ccc(-c3ncn(-c4ccc(OC(F)(F)C(F)(F)F)cc4)n3)cc2)C1OC (stereo not drawn) [Compound 109],A (the compound was tested and at least 50 percent mortality was observed),,A (the compound was tested and at least 50 percent mortality was observed),,A (the compound was tested and at least 50 percent mortality was observed)
CCCOC1C(OC)C(C)OC(ON=Cc2ccc(-c3ncn(-c4ccc(C(F)(F)C(F)(F)C(F)(F)F)cc4)n3)cc2)C1OC (stereo not drawn) [Compound 110],A (the compound was tested and at least 50 percent mortality was observed),,B (either (1) the compound was tested and less than 50 percent mortality was observed or (2) the compound was not tested),,B (either (1) the compound was tested and less than 50 percent mortality was observed or (2) the compound was not tested)
